This note sets out measurements from patent publication US20220017572A1, “GEMINOID LIPOPEPTIDE COMPOUNDS AND THEIR USES” (Erasmus University Medical Center Rotterdam, priority 2016, published 2022).

Non-standard residues stand in square brackets, D forms with d. Residues, ends and D or L forms follow the SMILES beside them. C12 = C12 alkyl chain at peptide end (geminoid); C16 = C16 alkyl chain at peptide end (geminoid); C20 = C20 alkyl chain at peptide end (geminoid); C3 = C3 alkyl chain at peptide end

T1 sequence (P14340 1476-1653): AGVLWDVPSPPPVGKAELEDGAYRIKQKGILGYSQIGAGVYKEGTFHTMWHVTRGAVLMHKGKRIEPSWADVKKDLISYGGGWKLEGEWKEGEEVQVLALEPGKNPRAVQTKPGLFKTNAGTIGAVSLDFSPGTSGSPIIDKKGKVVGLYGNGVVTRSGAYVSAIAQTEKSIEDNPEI

One assay addresses T1, dengue 2 protease (Dengue virus type 2, UniProt P14340).
T1 construct: The active site of the dengue protease is in the N-terminal part of NS3
Nature of the assay: Dengue 2 protease inhibition in presence of Triton X-100 (detergent test, Nature Protocol). The note with it: 5 μM of inhibitor, 0.05% Triton X-100. It counts as biochemical, dengue 2 virus. From the text:
A further investigation of the interactions of the geminoid inhibitors with biological membranes and with membrane-bound proteases is needed. […] The preparation and tests of peptides symmetrically, asymmetrically and singly alkylated with saturated, short (C6), and unsaturated (C18:1) alkyl tails are in progress.
For the molecule `CCCCCCCCCCCCNC(=O)[C@H](CCCCN)NC(=O)[C@H](C)NC(=O)[C@H](C)NC(=O)[C@H](C)NC(=O)[C@H](CCCCN)NC(=O)CCCCCCCCCCC` [C12KA3KC12, n-C11H23C(O)-Lys-(Ala)3-Lys-(n-C12H25).2TFA] (HELM PEPTIDE1{[CCCCCCCCCCCC(=O)[*:2]].K.A.A.A.K.[CCCCCCCCCCCCN[*:1]]}$$$$V2.0), the “% recovery in presence of Triton” value is recorded as 45%.

The assay is the same for the next values; noted with them: 5 μM of inhibitor, 0.05% Triton X-100; initial activity in UAF/min.
For the molecule `CCCCCCCCCCCCNC(=O)[C@H](CCCCN)NC(=O)[C@H](C)NC(=O)[C@H](C)NC(=O)[C@H](C)NC(=O)[C@H](CCCCN)NC(=O)CCCCCCCCCCC` [C12KA3KC12, n-C11H23C(O)-Lys-(Ala)3-Lys-(n-C12H25).2TFA] (HELM PEPTIDE1{[CCCCCCCCCCCC(=O)[*:2]].K.A.A.A.K.[CCCCCCCCCCCCN[*:1]]}$$$$V2.0), the “Activity with 0.05% Triton” value was found to be 85.

Another assay has as its system DENV2 protease replicon. Nature of the assay: DENV2 protease replicon assay. To be noted: lowest concentration with observed activity in replicon assay. It counts as cell-based.
Take “C16-NKKR-C16: geminoid in shorthand Cp-Zn-Cq, peptide SEQ ID NO: 86”: the “Replicon activity [μM] (1)” value came out at 3.0 µM.

Consider “C8-FKKK-C8: alkylated peptide in shorthand Cp-Zn-Cq, peptide SEQ ID NO: 73 ({C8 alkyl}-FKKK-{C8 alkyl})”, for which the “Replicon activity [μM] (1)” value was 10.0 µM.

With “C16-AKAKS-C16: geminoid in shorthand Cp-Zn-Cq, peptide SEQ ID NO: 89”, the “Replicon activity [μM] (1)” value stood at 1.0 µM.

Regarding “C16-D-LKAKG-C16: geminoid in shorthand Cp-Zn-Cq, D-peptide, SEQ ID NO: 88 (C16-[dL][dK][dA][dK]G-C16)”, the “Replicon activity [μM] (1)” value came out at 3.0 µM.

“C16-D-AKAKS-C16: geminoid in shorthand Cp-Zn-Cq, D-peptide, SEQ ID NO: 89 (C16-[dA][dK][dA][dK][dS]-C16)”: the “Replicon activity [μM] (1)” value turned out to be 5.0 µM.

For the molecule “C16-FFKK-C16: geminoid in shorthand Cp-Zn-Cq, peptide SEQ ID NO: 70”, the “Replicon activity [μM] (1)” value turned out to be 5.0 µM.

For the molecule “C8-LKKK-C8: alkylated peptide in shorthand Cp-Zn-Cq, peptide SEQ ID NO: 72”, the “Replicon activity [μM] (1)” value turned out to be 10.0 µM.

On to “C20-FKKK-C20: geminoid in shorthand Cp-Zn-Cq, peptide SEQ ID NO: 73 ({C20 alkyl}-FKKK-{C20 alkyl})”, for which the “Replicon activity [μM] (1)” value was 0.9 µM.

Regarding “C16-FFQK-C16: geminoid in shorthand Cp-Zn-Cq, peptide SEQ ID NO: 82”, the “Replicon activity [μM] (1)” value was determined as 3.0 µM.

For the molecule “C8-AKAK-C8: alkylated peptide in shorthand Cp-Zn-Cq, peptide SEQ ID NO: 74 ({C8 alkyl}-AKAK-{C8 alkyl})”, the “Replicon activity [μM] (1)” value was found to be 10.0 µM.

“C16-FLKK-C16: geminoid in shorthand Cp-Zn-Cq, peptide SEQ ID NO: 67”: the “Replicon activity [μM] (1)” value was determined as 3.0 µM.

For the molecule “C16-D-LKAK-C16: geminoid in shorthand Cp-Zn-Cq, D-peptide, SEQ ID NO: 75 (C16-[dL][dK][dA][dK]-C16)”, the “Replicon activity [μM] (1)” value is 9.9 µM.

As for “C2-AKAK-C3: alkylated peptide in shorthand Cp-Zn-Cq, peptide SEQ ID NO: 74 (Et-AKAK-C3)”, the “Replicon activity [μM] (1)” value worked out at 10.0 µM.

For “C16-LKRR-C16: geminoid in shorthand Cp-Zn-Cq, peptide SEQ ID NO: 83”, the “Replicon activity [μM] (1)” value worked out at 3.0 µM.

For “C16-QRKR-C16: geminoid in shorthand Cp-Zn-Cq, peptide SEQ ID NO: 85”, the “Replicon activity [μM] (1)” value stood at 3.0 µM.

As for “C16-D-AKAK-C16: geminoid in shorthand Cp-Zn-Cq, D-peptide, SEQ ID NO: 74 (C16-[dA][dK][dA][dK]-C16)”, the “Replicon activity [μM] (1)” value amounted to 2.9 µM.

As to “C16-LFKK-C16: geminoid in shorthand Cp-Zn-Cq, peptide SEQ ID NO: 69”, the “Replicon activity [μM] (1)” value was 10.0 µM.

With “C16-LLQK-C16: geminoid in shorthand Cp-Zn-Cq, peptide SEQ ID NO: 81”, the “Replicon activity [μM] (1)” value worked out at 0.3 µM.

“C20-LKKK-C20: geminoid in shorthand Cp-Zn-Cq, peptide SEQ ID NO: 72”: the “Replicon activity [μM] (1)” value is 1.0 µM.

Turning to “C12-LKAK-C12: geminoid in shorthand Cp-Zn-Cq, peptide SEQ ID NO: 75”, the “Replicon activity [μM] (1)” value was determined as 10.0 µM.

For “C16-LKAK-C16: geminoid in shorthand Cp-Zn-Cq, peptide SEQ ID NO: 75”, the “Replicon activity [μM] (1)” value worked out at 3.0 µM.

“C8-AKKK-C8: alkylated peptide in shorthand Cp-Zn-Cq, peptide SEQ ID NO: 71 ({C8 alkyl}-AKKK-{C8 alkyl})”: the “Replicon activity [μM] (1)” value is 10.0 µM.

On to “C16-FAKK-C16: geminoid in shorthand Cp-Zn-Cq, peptide SEQ ID NO: 64”, for which the “Replicon activity [μM] (1)” value is 3.0 µM.

Consider “C16-LLKK-C16: geminoid in shorthand Cp-Zn-Cq, peptide SEQ ID NO: 66”, for which the “Replicon activity [μM] (1)” value came to 3.0 µM.

In the case of “C12-AKAK-C12: geminoid in shorthand Cp-Zn-Cq, peptide SEQ ID NO: 74”, the “Replicon activity [μM] (1)” value is 10.0 µM.

On to “C8-LKAK-C8: alkylated peptide in shorthand Cp-Zn-Cq, peptide SEQ ID NO: 75 ({C8 alkyl}-LKAK-{C8 alkyl})”, for which the “Replicon activity [μM] (1)” value was 10.0 µM.

Turning to “C16-AFKK-C16: geminoid in shorthand Cp-Zn-Cq, peptide SEQ ID NO: 68”, the “Replicon activity [μM] (1)” value was 5.0 µM.

Consider “C16-LKKK-C16: geminoid in shorthand Cp-Zn-Cq, peptide SEQ ID NO: 72”, for which the “Replicon activity [μM] (1)” value stood at 1.0 µM.

In the case of “C16-D-AKAKG-C16: geminoid in shorthand Cp-Zn-Cq, D-peptide, SEQ ID NO: 87 (C16-[dA][dK][dA][dK]G-C16)”, the “Replicon activity [μM] (1)” value is 3.0 µM.

“C8-ARRK-C8: alkylated peptide in shorthand Cp-Zn-Cq, peptide SEQ ID NO: 76 ({C8 alkyl}-ARRK-{C8 alkyl})”: the “Replicon activity [μM] (1)” value came out at 10.0 µM.

Turning to “C3-ARRK-C3: alkylated peptide in shorthand Cp-Zn-Cq, peptide SEQ ID NO: 76 ({C3 alkyl}-ARRK-{C3 alkyl})”, the “Replicon activity [μM] (1)” value was found to be 3.0 µM.

In the case of “C16-ALKK-C16: geminoid in shorthand Cp-Zn-Cq, peptide SEQ ID NO: 65”, the “Replicon activity [μM] (1)” value came to 10.0 µM.

“C16-GLKR-C16: geminoid in shorthand Cp-Zn-Cq, peptide SEQ ID NO: 84”: the “Replicon activity [μM] (1)” value was 3.0 µM.

Consider “C3-LKKK-C3: alkylated peptide in shorthand Cp-Zn-Cq, peptide SEQ ID NO: 72”, for which the “Replicon activity [μM] (1)” value is 10.0 µM.

“C16-AAKK-C16: geminoid in shorthand Cp-Zn-Cq, peptide SEQ ID NO: 62”: the “Replicon activity [μM] (1)” value was found to be 5.0 µM.

In the case of “C16-D-LKAK-L-S-C16: geminoid in shorthand Cp-Zn-Cq, D-LKAK with L-S, SEQ ID NO: 90 (C16-[dL][dK][dA][dK]S-C16)”, the “Replicon activity [μM] (1)” value was found to be 3.0 µM.

Regarding “C16-ARRK-C16: geminoid in shorthand Cp-Zn-Cq, peptide SEQ ID NO: 76”, the “Replicon activity [μM] (1)” value turned out to be 0.3 µM.

Consider “C12-ARRK-C12: geminoid in shorthand Cp-Zn-Cq, peptide SEQ ID NO: 76”, for which the “Replicon activity [μM] (1)” value was found to be 0.3 µM.

For the molecule “C16-RARK-C16: geminoid in shorthand Cp-Zn-Cq, peptide SEQ ID NO: 77”, the “Replicon activity [μM] (1)” value is 3.0 µM.

Regarding “C16-AKKK-C16: geminoid in shorthand Cp-Zn-Cq, peptide SEQ ID NO: 71”, the “Replicon activity [μM] (1)” value was determined as 1.0 µM.

With “C2-LKAK-C3: alkylated peptide in shorthand Cp-Zn-Cq, peptide SEQ ID NO: 75 (Et-LKAK-C3)”, the “Replicon activity [μM] (1)” value was 10.0 µM.

As for “C12-RARK-C12: geminoid in shorthand Cp-Zn-Cq, peptide SEQ ID NO: 77”, the “Replicon activity [μM] (1)” value was found to be 1.0 µM.

Take “C20-AKKK-C20: geminoid in shorthand Cp-Zn-Cq, peptide SEQ ID NO: 71”: the “Replicon activity [μM] (1)” value is 3.0 µM.

Turning to “C3-AKKK-C3: alkylated peptide in shorthand Cp-Zn-Cq, peptide SEQ ID NO: 71 ({C3 alkyl}-AKKK-{C3 alkyl})”, the “Replicon activity [μM] (1)” value worked out at 10.0 µM.

With “C12-FKKK-C12: geminoid in shorthand Cp-Zn-Cq, peptide SEQ ID NO: 73”, the “Replicon activity [μM] (1)” value was determined as 10.0 µM.

With “C3-FKKK-C3: alkylated peptide in shorthand Cp-Zn-Cq, peptide SEQ ID NO: 73 ({C3 alkyl}-FKKK-{C3 alkyl})”, the “Replicon activity [μM] (1)” value was determined as 10.0 µM.

On to “C16-LAKK-C16: geminoid in shorthand Cp-Zn-Cq, peptide SEQ ID NO: 63”, for which the “Replicon activity [μM] (1)” value was determined as 5.0 µM.

A further assay concerns the target T1, dengue 2 protease. Nature of the assay: Dengue 2 protease inhibition, hydrolysis of Z-RR-MCA. It counts as biochemical, dengue 2 virus. Set-up: Activity with inhibitors: unit not given here.
Details: not given
On the procedure: The active site of the dengue protease is in the N-terminal part of NS3 which is also a serine protease with catalytic triad Asp79-His51-Ser135, but requires […] (CF40) for activity; the inhibition reported here was studied on a […] (CF40-GGGGSGGGG-NS3; (SEQ ID NO:54)) which has also been structurally characterized [Erbel et al., 2006; Luo et al. 2008].
Substrate was added in a concentration 10 times the Km, and the inhibitor compounds of type C (C16-KGnK-C16, C16-KAnK-C16, and C16-RAnR-C16) were added in increasing concentrations (1.0, 5.0, 10.0, 20.0, 40.0 μL) from a stock solution of 2 mg in 1 mL DMSO. The residual activity was measured in a Hitachi F2500 spectrofluorimeter, and plots were fitted using the Grafit® software (Erithracus Software, Horley, Surrey, UK). All the assays were calculated by the Morrison equation for competitive inhibition (eq. 1, [Morrison, 1969]). The amount of substrate used for the tight binding titration experiments follow all the requirements, where [S]<<Km for all enzymes, so the Kiapp=Ki.
Range of Proteases Inhibited by Geminoids, Determination of Ki with Z-RR-MCA (Dengue 2 Protease) and Ac-RVRR-MCA (Furin) (SEQ ID NO:60).
In the case of `CCCCCCCCCCCCNC(=O)[C@H](CCCCN)NC(=O)[C@H](C)NC(=O)[C@H](C)NC(=O)[C@H](C)NC(=O)[C@H](CCCCN)NC(=O)CCCCCCCCCCC` [C12KA3KC12, n-C11H23C(O)-Lys-(Ala)3-Lys-(n-C12H25).2TFA] (HELM PEPTIDE1{[CCCCCCCCCCCC(=O)[*:2]].K.A.A.A.K.[CCCCCCCCCCCCN[*:1]]}$$$$V2.0), the Ki (as a rule, a dissociation constant, usually derived from enzyme kinetics or from competition with a known ligand) was 5.4 µM.

Staying with this assay, now noted: 5 μM of inhibitor; 10 μM Z-RR-MCA, pH 9.0, 37° C.; initial activity in UAF/min.
Regarding `CCCCCCCCCCCCNC(=O)[C@H](CCCCN)NC(=O)[C@H](C)NC(=O)[C@H](C)NC(=O)[C@H](C)NC(=O)[C@H](CCCCN)NC(=O)CCCCCCCCCCC` [C12KA3KC12, n-C11H23C(O)-Lys-(Ala)3-Lys-(n-C12H25).2TFA] (HELM PEPTIDE1{[CCCCCCCCCCCC(=O)[*:2]].K.A.A.A.K.[CCCCCCCCCCCCN[*:1]]}$$$$V2.0), the Activity with inhibitors is given as 30.
